From patent publication US20110071199A1, “Thiophenyl Sulfonamides for the Treatment of Alzheimer's Disease” (Bristol-Myers Squibb Company, priority 2009, published 2011)

Columns and labels:
[1] = test system: Aβ formation in H4 APP751 SWE clone 8.20 cells (H4 neuroglioma cell line stably expressing the Swedish mutant of APP751); assay: Inhibition of Aβ formation in cultured cells; format: cell-based; details: for IC50: H4 APP751 SWE clone 8.20 cells, 19 hours incubation, Aβ40 or Aβ42 not specified
Protocol: Compounds were assayed for Aβ40 or Aβ42 inhibition in cells using H4 APP751 SWE clone 8.20, developed at Bristol-Myers Squibb, an H4 neuroglioma cell line stably expressing the Swedish mutant of APP751. Cells were maintained in log phase through twice weekly passage at a 1:20 dilution. For IC50 determinations, 30 μL cells (1.5×10^4 cells/well) in DMEM media containing 0.0125% BSA (Sigma A8412) were plated directly into 384-well compound plates (Costar 3709) containing 0.1 μL serially diluted compound in DMSO. Following incubation for 19 hours in 5% CO2 at 37° C., plates were briefly centrifuged (1000 rpm, 5 min). A 10 μL aliquot from each well was transferred to a second assay plate (Costar 3709) for Aβ40 measurements. Antibody cocktails were freshly prepared by dilution into 40 mM Tris-HCl (pH 7.4) with 0.2% BSA and added to assay plates. For Aβ42 measurements, antibodies specific for the Aβ42 neoepitope (565, developed at Bristol-Myers Squibb; conjugated to the Wallac reagent (Perkin Elmer)) and the N-terminal sequence of Aβ peptide (26D6, developed at SIBIA/Bristol-Myers Squibb; conjugated to APC (Perkin Elmer)) were mixed and 20 […] of the mixture was added to each well of the incubated cell plate yielding a final concentration of 0.8 ng/well 565 and 75 ng/well 26D6. For the Aβ40 measurements, antibodies specific for the Aβ40 neoepitope (TSD, developed at Bristol-Myers Squibb; conjugated to the Wallac reagent (Perkin Elmer)) and 26D6 as described above were mixed and 20 μL of the mixture was added to the 10 μL aliquots which had been removed previously from the cell plate yielding a final concentration of 1.6 ng/well TSD and 17.5 ng/well 26D6. Assay plates containing antibodies were sealed with aluminum foil and incubated overnight at 4° C. Signal was determined using a Viewlux counter (Perkin Elmer) and IC50 values determined using curve fitting in CurveMaster (Excel Fit based).

[2] = test system: brain Aβ40; assay: Acute rat study, brain Abeta40 assay (252-TSD ELISA); format: in vivo; details: female Sprague-Dawley rats, single dose 10 mg/kg, oral gavage
Protocol: (§1) Aβ species from animals were measured using sandwich ELISA assays. A brief discussion of these assays is included here since the details of the epitopes for the individual antibodies determines the Aβ species that are detected. Mouse and rat Aβ share a common Aβ sequence that differs from human Aβ. As a result of these sequence differences, antibodies that recognize the N-terminal region of human Aβ, such as 26D6, bind weakly to rodent Aβ. Likewise, antibodies that bind tightly to rodent Aβ, such as 252, bind weakly to human Aβ. Two assays were developed for measuring rodent Aβ40: 252-TSD and 4G8-TSD. The TSD-4G8 assay can measure not only Aβ40, but other BACE-γ-secretase cleavage products (Aβ11-40) and α-secretase-γ-secretase cleavage products (P3).
(§2) Dosing solutions were made once at the start of the study. Heating at 56° C. and sonication were used to solubilize compound in the dosing solution. All procedures were done in concordance with ACUC guidelines. Terminal blood samples were obtained by cardiac puncture after CO2 euthanasia and collected in EDTA tubes. Plasma was obtained after centrifugation. […]
Rat brain (half a hemisphere) was homogenized using a polytron at 4 mL/g in PBS, pH 7.8, 2% CHAPS, complete protease inhibitors (Roche). […] The bound 252-HRP antibody was detected using Pierce Supersignal Pico Chemiluminescent substrate for 10 minutes and quantified a Packard TopCount. […]

[3] = test system: plasma Aβ40; assay: Acute rat study, plasma Abeta40 assay (4G8-TSD ELISA); format: in vivo; details: female Sprague-Dawley rats, single dose 10 mg/kg, oral gavage
Protocol: as §1, §2
Plates were coated with TSD antibody and washed as for the brain Aβ40 assay. […] Samples were detected using 4G8-biotin (Signet) diluted 1:8000 in PBS, 0.05% Tween, 0.1% BSA for 1 hour. […] Detection and quantification were as for brain Aβ40 assays. […]

| SMILES | IC50 [1] [nM] | also measured |
| --- | --- | --- |
| NC(=O)[C@@H](CC1CC1)N(Cc1ccc(Br)cc1)S(=O)(=O)c1ccc(Cl)s1 [Example 1, (R)-2-(N-(4-bromobenzyl)-5-chlorothiophene-2-sulfonamido)-3-cyclopropylpropanamide] | 1.01 |  |
| NC(=O)[C@@H](CC1CC1)N(Cc1ccc(Br)cc1F)S(=O)(=O)c1ccc(Cl)s1 [Example 2, (R)-2-(N-(4-bromo-2-fluorobenzyl)-5-chlorothiophene-2-sulfonamido)-3-cyclopropylpropanamide] | 0.52 |  |
| NC(=O)[C@@H](CC1CC1)N(Cc1ccc(Br)c(F)c1)S(=O)(=O)c1ccc(Cl)s1 [Example 3, (R)-2-(N-(4-bromo-3-fluorobenzyl)-5-chlorothiophene-2-sulfonamido)-3-cyclopropylpropanamide] | 0.76 |  |
| NC(=O)[C@@H](CC1CC1)N(Cc1cc(F)c(Br)cc1F)S(=O)(=O)c1ccc(Cl)s1 [Example 4, (R)-2-(N-(4-bromo-2,5-difluorobenzyl)-5-chlorothiophene-2-sulfonamido)-3-cyclopropylpropanamide] | 0.82 |  |
| NC(=O)[C@@H](CC1CC1)N(Cc1ccc(-c2ncon2)cc1)S(=O)(=O)c1ccc(Cl)s1 [Example 5, (R)-2-(N-(4-(1,2,4-oxadiazol-3-yl)benzyl)-5-chlorothiophene-2-sulfonamido)-3-cyclopropylpropanamide] | 0.51 |  |
| NC(=O)[C@@H](CC1CC1)N(Cc1cc(F)c(Cl)cc1F)S(=O)(=O)c1ccc(Cl)s1 [Example 6, (R)-2-(5-chloro-N-(4-chloro-2,5-difluorobenzyl)thiaphene-2-sulfonamido)-3-cyclopropylpropanamide] | 1.49 |  |
| NC(=O)[C@@H](CCC(F)(F)F)N(Cc1ccc(-c2ncon2)cc1F)S(=O)(=O)c1ccc(Cl)s1 [Example 7, (R)-2-(5-chloro-N-(2-fluoro-4-(1,2,4-oxadiazol-3-yl)benzyl)thiophene-2-sulfonamido)-5,5,5-trifluoropentanamide] | 0.29 | Aβ40 versus Aβ42 inhibition in cultured cells ([1]; cultured cells): similarly inhibited; brain Aβ40, level as % of vehicle control [2]: 41 % of vehicle control; plasma Aβ40, level as % of vehicle control [3]: 47 % of vehicle control |
| NC(=O)[C@@H](CCC(F)(F)F)N(Cc1ccc(-c2ncco2)cc1F)S(=O)(=O)c1ccc(Cl)s1 [Example 9, (R)-2-(5-chloro-N-(2-fluoro-4-(oxazol-2-yl)benzyl)thiophene-2-sulfonamido)-5,5,5-trifluoropentanamide] | 0.61 |  |
| NC(=O)[C@@H](CCC(F)(F)F)N(Cc1ccc(Br)cc1)S(=O)(=O)c1ccc(Cl)s1 [Example 10, (R)-2-(N-(4-bromobenzyl)-5-chlorothiophene-2-sulfonamido)-5,5,5-trifluoropentanamnide] | 2.54 |  |
| NC(=O)[C@@H](CCC(F)(F)F)N(Cc1ccc(Br)cc1F)S(=O)(=O)c1ccc(Cl)s1 [Example 11, (R)-2-(N-(4-bromo-2-fluorobenzyl)-5-chlorothiophene-2-sulfonamido)-5,5,5-trifluoropentanamide] | 1.06 |  |
| NC(=O)[C@@H](CCC(F)(F)F)N(Cc1ccc(Br)c(F)c1)S(=O)(=O)c1ccc(Cl)s1 [Example 12, (R)-2-(N-(4-bromo-3-fluorobenzyl)-5-chlorothiophene-2-sulfonamido)-5,5,5-trifluoropentanamide] | 2.98 |  |
